The subject of series [1] is K. pneumoniae ST258. As to the method: (§1) The potential synergistic effects in peptidomimetic-antibiotic combinations were assessed by using a two-dimensional checkerboard assay (Garcia, [2010]). Briefly, twofold dilutions of peptide and antibiotic were prepared in MBH II media along the X- and Y-axis, respectively, in 96-well plates. The inoculum was added to the plates, and subsequently these were incubated for 18–20 h. All steps for inoculum preparation and broth microdilution were in accordance with the CLSI guidelines (Clinical and Laboratory Standards Institute, [2013]). The fractional inhibitory concentration index (FICI) was calculated as [MICA(A+B)/MICA(alone)] + [MICB(A+B)/MICB(alone)], where MICA(A+B) represents the MIC of antibiotic (A) in combination with peptidomimetic (B), while MICB(A+B) represents the MIC of peptidomimetic (B) in combination with antibiotic (A). MICA(alone) and MICB(alone) represent the MIC of each compound individually. FICI values of ≤0.5 were interpreted as synergy.

Series [2] concerns E. coli ST131. The experiment in a line: Potentiation of additional antibiotics (COMPAN1F plates), MIC. Format: cell-based, Escherichia coli. Particulars: for MIC of antibiotic in presence of peptidomimetic 26: + 0.25 μM peptidomimetic 26; for MIC of antibiotic in presence of peptidomimetic 1: + 0.5 μM peptidomimetic 1; for MIC of antibiotic in presence of peptidomimetic 15: + 0.5 μM peptidomimetic 15. As to the method: (§2) Minimal inhibitory concentrations (MICs) of peptidomimetics, antibiotics and their combinations were determined by broth microdilution according to the Clinical Laboratory Standards Institute performance standards (Clinical and Laboratory Standards Institute, [2013]). […] Since rifampicin and azithromycin mainly are used to treat infections with Gram-positive pathogens only CLSI clinical breakpoints were available for such bacteria. […] Potentiation of additional antibiotics by peptidomimetics was determined by using commercial 96-well plates containing varied concentrations of standard antibiotics (COMPAN1F; Trek Diagnostic Systems Inc.). The peptidomimetics were added immediately prior to inoculation with pathogen, and then MICs were determined as above. The MICs of peptidomimetic/antibiotic combinations were determined according to the method above, and the concentration ratios were selected based upon checkerboard results with 2:1 and 1:4 ratio of peptidomimetic with rifampicin or azithromycin, respectively. Minimal bactericidal concentrations (MBCs) were determined by using growth-curve assay plates. MIC plates were prepared as above, and then the plates were incubated at 37°C with continuous shaking. Growth was recorded at 10 min intervals as optical density (OD) at 600 nm during 24 h. At 24 h, for wells without growth, a sample was diluted 10-fold in sterile saline (0.9% sodium chloride) and plated onto MHA, following CLSI guidelines (Clinical and Laboratory Standards Institute, [1999]).

In series [3] the test system is K. pneumoniae ST258. The series is described as above. The conditions noted are these: for MIC of antibiotic in presence of peptidomimetic 1: + 1 μM peptidomimetic 1; for MIC of antibiotic in presence of peptidomimetic 15: + 1 μM peptidomimetic 15; for MIC of antibiotic in presence of peptidomimetic 26: + 1 μM peptidomimetic 26. Format: cell-based, Klebsiella pneumoniae. As to the method:
as §2

Series [4] concerns K. pneumoniae ST258. Nature of the series: Screening of peptidomimetic-antibiotic combinations (growth / growth inhibition). Also on record: key to Growth in combination with RIF / Growth in combination with AZM: Growth (+); growth inhibition (–). Format: cell-based, Klebsiella pneumoniae. As to the method:
as §2

Series [5] in a line: MTS/PMS cell viability assay. Format: cell-based, mouse. The conditions noted are these: mouse, NIH 3T3 fibroblasts, 1 h exposure, read-out: Cytotoxicity NIH 3T3 EC50 ± SD. As to the method:
(§3) NIH 3T3 and HepG2 cells (both from ATCC, Manassas, VA, USA) were cultured in flat-bottomed 96-well MicroWell™ plates (NUNC, Roskilde, Denmark) at seeding densities of ~23,000 and ~22,000 cells/well, respectively, and then cultured for 22–24 h under standard culturing conditions (37°C, 5% CO2, humidified air) to reach 80–90% confluence. NIH 3T3 were cultured in Dulbecco's modified Eagle's medium (DMEM) supplemented with 10% (v/v) newborn-calf serum (NCS) (Gibco, Paisly, UK), while HepG2 were cultured in Eagle's minimum essential medium (EMEM) supplemented with 10% (v/v) fetal bovine serum (FBS, Gibco, Paisly, UK), sodium pyruvate (1 mM), and non-essential amino acids (1%, v/v). Both culturing media were further supplemented with penicillin (100 U/mL), streptomycin (100 μg/mL), and L-glutamine (2 mM).
(§4) Effect on cell viability was determined in NIH 3T3 fibroblasts and HepG2 hepatocytes by using the MTS/PMS assay measuring metabolic activity. Briefly, the adhered cells were washed with 37°C Hanks' balanced salt solution (HBSS from Sigma-Aldrich, St. Louis, MO, USA), containing 10 mM HEPES (AppliChem, Darmstadt, Germany), and adjusted to pH 7.4, and were then exposed for 1 h to 100 μL of test compound(s) dissolved in the appropriate culturing medium without serum for each cell line. After exposure the cells were washed with HBSS containing 10 mM HEPES (pH 7.4) and 100 μL of an MTS/PMS solution, consisting of 240 μg/mL MTS (Promega, Madison, WI, USA) and 2.4 μg/mL PMS (SigmaAldrich, Buchs, Switzerland) in HBSS, was added to the cells, which then were incubated for 1 h at 37°C with horizontal shaking under light protection. Absorbance was measured at 492 nm by using a POLARstar OPTIMA plate reader (BMG Labtech, Offenburg, Germany). The relative viability was calculated according to Equation (1) with absorbance values obtained after incubation of cells with test compound; incubation with SDS (0.2%, w/v in medium) defined 100% cell death (Abspos), while the absorbance of cells incubated with medium defined 0% cell death (Absneg).
(§5) (1) Relative viability(%)=(Abssample-Abspos)/(Absneg-Abspos)×100%
(§6) EC50 values were calculated by using GraphPad Prism 7 (GraphPad Software, La Jolla, CA, USA) via fitting of the relative cell viability to the concentration of the test compound by using Equation (2):
(§7) (2) Relative viability(%)= Top-Bottom/1+10^(LogIC50-Log[peptidomimetic]) ×Hill slope
(§8) With top and bottom representing the mean highest and lowest observed values, respectively. The Hill slope represents a factor for the steepness of the linear part of the curve. In order to prevent erroneous calculation, the top and bottom values were constrained to 100 and 0%, respectively. Data were collected from technical triplicates. The selectivity index was calculated as the average effect on cell viability (EC50 values for HepG2 and NIH 3T3 cells) divided by the MIC.

The test system of the next series is NIH 3T3 and HepG2 cells. Nature of the series: Effect on viability of mammalian cells (both cell lines). Format: cell-based, mouse and human. As to the method: as §3, §4, §5, §6, §7
With top and bottom representing the mean highest and lowest observed values, respectively. The Hill slope represents a factor for the steepness of the linear part of the curve. […] The selectivity index was calculated as the average effect on cell viability (EC50 values for HepG2 and NIH 3T3 cells) divided by the MIC.

Series [6] has as its system E. coli ST131. As to the method: as §1
For series [7], the system named is P. aeruginosa ATCC 27853. As to the method:
as §1

Series [8] has as its system E. coli ST131. Nature of the series: MIC by broth microdilution. Particulars: peptidomimetic alone. In kind it is cell-based, Escherichia coli. As to the method:
as §2

Series [9] has as its system P. aeruginosa ATCC 27853. Nature of the series: MIC by broth microdilution. Particulars: peptidomimetic alone. In kind it is cell-based, Pseudomonas aeruginosa. As to the method:
as §2

The nature of series [10]: MTS/PMS cell viability assay. In kind it is cell-based. The conditions noted are these: human, HepG2 hepatocytes, 1 h exposure, read-out: Cytotoxicity HepG2 EC50 ± SD. As to the method:
as §3, §4, §5, §6, §7, §8

Series [11] deals with K. pneumoniae ST258. Nature of the series: MIC by broth microdilution. Format: cell-based, Klebsiella pneumoniae. As to the method:
as §2

For a further series, the system named is MDR E. coli ST131. The experiment in a line: Screening of peptidomimetic-antibiotic combinations (growth / growth inhibition). In kind it is cell-based, Escherichia coli. Also on record: key to Growth in combination with RIF / Growth in combination with AZM: Growth (+); growth inhibition (–). As to the method: as §2
Where [12] appears, read: 0.5 μM peptidomimetic + 0.5 μg/mL rifampicin.
Setting [13] is: peptidomimetic 0.5 μM + azithromycin 1 μg/mL.
Setting [14] is: peptidomimetic 0.5 μM + rifampicin 0.5 μg/mL.
Setting [15] is: MIC of azithromycin combined with the labelled peptidomimetic.
The mark [16] stands for this setting: MIC of rifampicin combined with the labelled peptidomimetic.

From publication PMC6615261, “Repurposing Azithromycin and Rifampicin Against Gram-Negative Pathogens by Combination With Peptidomimetics” (Frontiers in Cellular and Infection Microbiology, 2019) come the findings set out here.

Where two headings read alike, the source gives them in different places.

On to `CCC[C@@H]1C[C@@H](C(=O)N[C@@H]([C@H]2O[C@H](SC)[C@H](O)[C@@H](O)[C@H]2O)[C@H](C)Cl)N(C)C1` [Clindamycin], for which the “Antibiotic MIC alone” value with K. pneumoniae ST258 [1] (checkerboard) came out at 125 µg/mL. In the series on E. coli ST131 [2], the “MIC of antibiotic in presence of peptidomimetic 26” value (“MIC … of peptidomimetic 26” below) is more than 4 µg/mL, the “MIC of antibiotic in presence of peptidomimetic 1” value amounted to 4 µg/mL and the “MIC of antibiotic in presence of peptidomimetic 15” value (“MIC … of peptidomimetic 15” for short) was more than 4 µg/mL. In the series with E. coli ST131 [2] (Escherichia coli, no peptidomimetic, read-out: MIC of antibiotic alone), the minimal inhibitory concentration (MIC) was more than 4 µg/mL. Also, in the series on K. pneumoniae ST258 [3], the “MIC of antibiotic in presence of peptidomimetic 1” value was more than 4 µg/mL, the “MIC … of peptidomimetic 15” value is more than 4 µg/mL and the “MIC … of peptidomimetic 26” value is 2 µg/mL. Further, in the series on K. pneumoniae ST258 [3] (Klebsiella pneumoniae, no peptidomimetic, read-out: MIC of antibiotic alone), the minimal inhibitory concentration (MIC) was more than 4 µg/mL. Moreover, the “MIC of antibiotic alone” value in the series on K. pneumoniae ST258 [3] (no peptidomimetic) was more than 4 µg/mL.
As for `CC(=O)N[C@@H](CCCCN)C(=O)N(CCC(=O)N[C@@H](CCCCN)C(=O)N(CCC(=O)N[C@@H](CCCCN)C(=O)N(CCC(=O)N[C@@H](CCCCN)C(=O)N(CCC(=O)N[C@@H](CCCCN)C(=O)N(CCC(=O)N[C@@H](CCCCN)C(=O)N(CCC(=O)N[C@@H](CCCCN)C(=O)N(CCC(=O)N[C@@H](CCCCN)C(=O)N(CCC(N)=O)Cc1ccccc1)Cc1ccccc1)Cc1ccccc1)Cc1ccccc1)Cc1ccccc1)Cc1ccccc1)Cc1ccccc1)Cc1ccccc1` [Peptidomimetic 15, Ac-(Lys-βNPhe)8-NH2], the “Screening result with rifampicin” value in the series on K. pneumoniae ST258 [4] (setting [12]) and with MDR E. coli ST131 (setting [12]) was “inhibit growth” throughout. Also, the figures for the “Growth in combination with AZM” value in the series on K. pneumoniae ST258 [4] (setting [13]) and with MDR E. coli ST131 (setting [13]) were “+” and “–”, respectively. For the same molecule, the “Growth in combination with RIF” value in the series with K. pneumoniae ST258 [4] (setting [14]) and in the series with MDR E. coli ST131 (setting [14]) was “–” each time. In addition, the concentration for a half-maximal effect (EC50) at 1 h in [5] worked out at 217 ± 23.1 µM; in [10], 121.37 ± 0.06 µM. In the series on NIH 3T3 and HepG2 cells, the half-maximal effective concentration (EC50) was more than 100 µM. The “Antibiotic MIC in combination (AZM)” value turned out to be 1 µg/mL in the series with E. coli ST131 [6] (setting [15]) and 8 µg/mL in the series with K. pneumoniae ST258 [1] (setting [15]). The “Antibiotic MIC in combination (RIF)” value is 0.5 µg/mL with E. coli ST131 [6] (setting [16]); 0.5 µg/mL in the series with K. pneumoniae ST258 [1] (setting [16]); 0.5 µg/mL in the series on P. aeruginosa ATCC 27853 [7] (P. aeruginosa ATCC 27853, MIC of rifampicin combined with the labelled peptidomimetic). For the same molecule, the “Peptidomimetic MIC alone” value with E. coli ST131 [6] (checkerboard) was determined as 1 µM; in the series on K. pneumoniae ST258 [1] (checkerboard), 32 µM; in the series on P. aeruginosa ATCC 27853 [7] (P. aeruginosa ATCC 27853, checkerboard), 1 µM. Moreover, the “Peptidomimetic MIC in combination” value with E. coli ST131 [6] (combined with AZM) was found to be 0.13 µM; in the series on E. coli ST131 [6] (combined with RIF), 0.13 µM; in the series with K. pneumoniae ST258 [1] (combined with AZM), 0.5 µM; in the series on K. pneumoniae ST258 [1] (combined with RIF), 0.5 µM; in the series with P. aeruginosa ATCC 27853 [7] (P. aeruginosa ATCC 27853, combined with AZM) it was 0.5 µM; in the series on P. aeruginosa ATCC 27853 [7] (P. aeruginosa ATCC 27853, combined with RIF), 0.5 µM. In addition, the “Reduction of the MIC of azithromycin” value in the series on P. aeruginosa ATCC 27853 [7] (P. aeruginosa, sub-MIC concentrations of peptidomimetic) is listed as 32- to 512 fold. Further, the “MIC E. coli ST131” value in the series with E. coli ST131 [8] turned out to be 1 µM. The “MIC P. aeruginosa ATCC 27853” value with P. aeruginosa ATCC 27853 [9] was found to be 1 µM. In the series on K. pneumoniae ST258 [11] (average of EC50 (HepG2, NIH 3T3) divided by MIC), the “Selectivity Index (SI) K. pneumoniae ST258” value was “(5)”. In addition, in the series with K. pneumoniae ST258 [11] (peptidomimetic alone), the “MIC K. pneumoniae ST258” value was found to be 32 µM.
As for “Amoxicillin/clavulanic acid [Amoxicillin/clavulanic acid (2:1)]”, in the series with E. coli ST131 [2], the “MIC … of peptidomimetic 26” value is 8/4, the “MIC of antibiotic in presence of peptidomimetic 1” value is 8 µg/mL and the “MIC … of peptidomimetic 15” value was found to be 8 µg/mL. Moreover, the “MIC of antibiotic alone” value with E. coli ST131 [2] (no peptidomimetic) came out at 16 µg/mL. For the same molecule, in the series with K. pneumoniae ST258 [3], the “MIC of antibiotic in presence of peptidomimetic 1” value is more than 32 µg/mL, the “MIC … of peptidomimetic 15” value is more than 32 µg/mL and the “MIC … of peptidomimetic 26” value is more than 32 µg/mL. Moreover, in the series with K. pneumoniae ST258 [3] (no peptidomimetic), the “MIC of antibiotic alone” value was more than 32 µg/mL.
